System: P. falciparum 3D7 growth, pLDH absorbance
Assay: blood-stage malaria parasite growth potency – strain 3D7, dose response (AID 2305)

Compared with `CCn1cnc2c(N3CCCS3(=O)=O)cc(C(=O)N[C@@H](Cc3ccccc3)[C@H](O)CNC(C)(C)c3cccc(C(F)(F)F)c3)cc21`, `CC(C)[C@H](NC(=O)c1ccc(O)c(-c2cccc(C(F)(F)F)c2)c1)C(=O)NCCN1CCCCC1` is 3.7-fold higher in IC50: 230 nM for the first, 840 nM for the second.

Going from `CC(C)N(CCOc1ccc2c(c1)N(C(=O)Nc1ccc(Cl)c(Cl)c1)CC2)C(C)C` to `CCC(C)(C)c1ccc(S(=O)(=O)Nc2ccc(Cl)c(OCCN3CCCCC3)c2)cc1`, the IC50 rises from 370 nM to 1110 nM (3-fold). The first is the more potent here.

Going from `CC(C)Sc1nc2c(c(=O)n1CCc1ccccc1)C1(CCCCC1)Cc1ccccc1-2` to `C=C(C)CSc1nc2c(c(=O)n1Cc1ccco1)C1(CCCCC1)Cc1ccccc1-2`, the IC50 falls from 1870 nM to 1000 nM (1.9-fold). The second is the more potent here.

`CCC(Nc1noc(-c2c(-c3ccccc3)noc2C)n1)c1ccccc1` (stereo not drawn) and `Cc1cc(NN=CC=Cc2ccccc2)c2ccccc2n1` are within 1.5-fold of each other in IC50: 970 nM for the first, 760 nM for the second.

`CN(C)CCC1CCN(CCS(=O)(=O)c2cccc(Nc3ncc(-c4cccc(F)c4)cn3)c2)CC1` and `CN(C)c1ccc(CN2CCC(NC(=O)c3ccc(-c4cccc(F)c4)s3)CC2)cc1` are within 1.5-fold of each other in IC50: 1060 nM for the first, 1490 nM for the second.

`Cc1nc(-c2ccccc2)nc(N2CCN(C(=O)c3ccco3)CC2)c1Cc1ccccc1F` and `Cc1ccccc1CN1CCCN(Cc2ccc(C(=O)Nc3ccc(Cl)cc3)cc2)CC1` are within 1.5-fold of each other in IC50: 930 nM for the first, 940 nM for the second.

`N#Cc1ccc(CN2CCCN(Cc3cccc(NC(=O)c4cc5ccccc5s4)c3)CC2)cc1` and `COc1ccc(-c2ccc(NC(=O)c3cccc(Cl)c3)cc2)cc1CN1CCCC1` are within 1.5-fold of each other in IC50: 910 nM for the first, 710 nM for the second.

`c1cc(CNCCc2ccncc2)cc(-c2ccc(-c3nc4ccccc4[nH]3)s2)c1` and `Fc1ccc2nc(-c3cccc(-c4cccc(CNCc5ccccc5)c4)c3)[nH]c2c1` are within 1.5-fold of each other in IC50: 340 nM for the first, 280 nM for the second.

Compared with `COC(=O)CCCCOc1c(OC)cc(Cc2cnc(N)nc2N)cc1OC`, `NC(N)=Nc1nc(-c2cccc(NCCCCCCCCON3C(N)=NC(N)=NC34CCCCC4)c2)cs1` is 5.8-fold higher in IC50: 40 nM for the first, 230 nM for the second. The first is the more potent here.

`CCOc1c(CNCCCCCCNCc2ccc3ccccc3c2OCC)ccc2ccccc12` and `CS(=O)(=O)CCNCc1cccc(-c2ccc3c(Nc4ccc(Oc5ccccc5)cc4)ccnc3c2)c1` are within 1.5-fold of each other in IC50: 760 nM for the first, 690 nM for the second.

Going from `N#Cc1ccc(-c2cnc3ccc(NCc4ccc(S(N)(=O)=O)cc4)nn23)cc1` to `COc1ccc(-c2cccc(NC(=O)c3ccc(C#N)cc3)c2)cc1CN(C)CCN(C)C`, the IC50 falls from 780 nM to 70 nM (11-fold).

`OC1(c2ccc(Cl)c(C(F)(F)F)c2)CCN(CCOC2c3ccccc3CSc3ccc(Cl)cc32)CC1` (stereo not drawn) and `O=C(/C=C/c1cc(C(F)(F)F)ccc1F)NC1CCC(CN2CCC(c3c[nH]c4ccccc34)CC2)CC1` (stereo not drawn) are within 1.5-fold of each other in IC50: 800 nM for the first, 820 nM for the second.

Going from `O=C(Nc1ccccc1)Nc1ccc(-n2ccc(C(F)(F)F)n2)cc1` to `O=C(CCc1cnc[nH]1)Nc1cccc(-c2cccc(-c3nc4ccc(C(F)(F)F)cc4[nH]3)c2)c1`, the IC50 falls from 630 nM to 130 nM (4.8-fold).

`N#Cc1ccc2c(c1)CCN(CCC1CCC(NC(=O)c3cc4ccc(Br)cc4[nH]3)CC1)C2` (stereo not drawn) and `Cc1cccc(C)c1N1CCN(C2CCC(NC(=O)c3cc4ccccc4[nH]3)CC2)CC1` (stereo not drawn) are within 1.5-fold of each other in IC50: 760 nM for the first, 600 nM for the second.

Compared with `Cc1[nH]c(C)c(-c2ccc(Oc3ccc(OC(F)(F)F)cc3)cc2)c(=O)c1I`, `CCN1CCC(N(Cc2ccc(-c3ccc(C(F)(F)F)cc3)cc2)C(=O)Cn2nc(C)c(=O)cc2SCc2ccc(F)cc2)CC1` is 7.8-fold higher in IC50: 130 nM for the first, 1010 nM for the second. The first is the more potent here.

`Cc1cc(O)c(CN(C)Cc2ccc3c(c2)OCO3)cc1C(C)C` and `CC(C)COc1ccc(Cl)cc1Cc1ccc(-c2nc3c(F)c(F)ccc3[nH]2)o1` are within 1.5-fold of each other in IC50: 740 nM for the first, 940 nM for the second.

`CCN(CC)CCN(Cc1ccc(-c2ccc(C(F)(F)F)cc2)cc1)C(=O)Cn1c(CCc2cccc(F)c2F)nc(=O)c2cccnc21` and `CCN(CC(C)O)C(=O)c1ccc(-c2ccc(-c3nc4c(C)cccc4[nH]3)cc2)cc1` (stereo not drawn) are within 1.5-fold of each other in IC50: 730 nM for the first, 840 nM for the second.

Compared with `Fc1ccccc1COc1ccc(Nc2ncnc3ccc(I)cc23)cc1Cl`, `Cc1cccc(Nc2c(-c3cc(Br)ccc3O)nc3ncccn23)c1` is 4.4-fold lower in IC50: 930 nM for the first, 210 nM for the second.

Going from `Brc1cc(Br)c2c(c1)C(NCCCNc1nc3ncccc3[nH]1)CCN2` (stereo not drawn) to `Cc1cc(N[C@@H](Cc2ccccc2)C(=O)NC2CCCC2)nc(NCC2CCCCC2)n1`, the IC50 rises from 590 nM to 1170 nM (2-fold).

`COC(=O)c1ccc(NC(=O)c2ccc(CCN3CCC(c4nc(COCC(F)(F)F)c(-c5ccc(F)cc5)o4)CC3)cc2)cc1` and `CC(C)CNCc1cccc(-c2ccc(CN(C(=O)NC3CCCCC3)C3CCN(Cc4ccccc4)CC3)cc2)c1` are within 1.5-fold of each other in IC50: 1040 nM for the first, 760 nM for the second.

`CC(C)C[C@H](NC(=O)[C@H](Cc1ccccc1)N(C[C@H](Cc1ccccc1)NC(=O)OC(C)(C)C)C(=O)C(F)(F)F)C(=O)NC1CCN(Cc2ccccc2)CC1` and `c1ccc(C(c2ccccc2)N2CCC(NCc3ccc(OCCCN4CCCCC4)cc3)CC2)cc1` are within 1.5-fold of each other in IC50: 530 nM for the first, 560 nM for the second.

`CCC(CC)(Cc1ccccc1)NC(=O)[C@H](CC1CCCCC1)Nc1ccc(C#N)c2ccccc12` and `NC1CCCN(Cc2cccc(-c3ccc(-c4nc5ccc(F)cc5[nH]4)cc3)c2)C1` (stereo not drawn) are within 1.5-fold of each other in IC50: 630 nM for the first, 570 nM for the second.

First: CC(=O)Nc1ccc(C(=O)Nc2cccc(-c3ccc(-c4nc5c(C)cccc5[nH]4)cc3)c2)cn1
Second: CCCN(C(=O)c1ccccc1C)c1nnc(-c2cccc(C)c2)s1
The IC50 of the first is 4.7-fold lower: 190 nM for the first, 900 nM for the second.

`COc1cccc(CN2CCCC(OC(c3ccc(F)cc3)c3ccc(F)cc3)C2)c1O` (stereo not drawn) and `CCCn1c(SCC(=O)Nc2cc(Cl)ccc2Cl)n[nH]c1=O` are within 1.5-fold of each other in IC50: 790 nM for the first, 1000 nM for the second.

Reference: PubChem BioAssay AID2305 (GlaxoSmithKline (GSK), 2010)
